Data as given in patent US6642392B1 (priority 1997, dated 2003).
Where two headings read alike, the source gives them in different places.

Tests used:
Assay type in all cases: in vivo
Botrytis cinerea = assay: Test E: gray mold, preventive spray on cucumber seedlings; details: for Test E disease control rating: gray mold on cucumber; for Test E disease control rating (100 = 100% disease control, 0 = no disease control): cucumber seedlings sprayed to run-off, inoculated the following day, rating relative to controls, unmarked compounds (standard test rate)
Outline: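 Compounds in 3% acetone were suspended with 250 ppm Trem 014 surfactant and sprayed to run-off on cucumber seedlings. B. cinerea spores were inoculated next day, then 48 h saturated humidity at 20° C and 5 days at 20° C. Disease control rated 0–100% versus controls.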

[1] = tested on: Eiysiphe graminis f. sp. tritici; assay: Test A: wheat powdery mildew, preventive spray on wheat seedlings; details: for Test A disease control rating: wheat powdery mildew; for Test A disease control rating (100 = 100% disease control, 0 = no disease control): wheat seedlings sprayed to run-off, inoculated the following day, rating relative to controls, unmarked compounds (standard test rate)
Outline: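 Compounds (3% acetone, 250 ppm Trem 014) sprayed to run-off on wheat seedlings, inoculated next day with spore dust. Incubated 7 days at 20° C before disease rating, 0–100% control relative to untreated controls.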

Phytophthora infestans = details: for Test D disease control rating: tomato late blight; for Test D disease control rating (100 = 100% disease control, 0 = no disease control): tomato seedlings sprayed to run-off, inoculated the following day, rating relative to controls, unmarked compounds (standard test rate)
Puccinia recondita = assay: Test B: wheat leaf rust, preventive spray on wheat seedlings; details: for Test B disease control rating: wheat leaf rust; for Test B disease control rating (100 = 100% disease control, 0 = no disease control): wheat seedlings sprayed to run-off, inoculated the following day, rating relative to controls, unmarked compounds (standard test rate)
Outline: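 Wheat seedlings were sprayed to run-off with compound (3% acetone, 250 ppm Trem 014), then inoculated with P. recondita spores the next day. They were held 24 h saturated at 20 °C, then 6 days at 20 °C. Ratings are 0–100% disease control versus controls.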

Pyricularia oryzae = details: for Test C disease control rating: rice blast; for Test C disease control rating (100 = 100% disease control, 0 = no disease control): rice seedlings sprayed to run-off, inoculated the following day, rating relative to controls, unmarked compounds (standard test rate)
[2] = 100 = 100% disease control, 0 = no control, unmarked entries (standard test concentration)
[3] = 100 = 100% disease control, 0 = no control relative to controls, unmarked entries (standard test concentration)

C[C@H](COc1cc(Cl)cc(Cl)c1Cl)NC(=O)C(C#N)C(C)(C)C (single isomer, unassigned) [170a]
Test E disease control rating (Botrytis cinerea; [2]): 58% | Test A disease control rating [1, 3]: 35% | Test D disease control rating (Phytophthora infestans; [2]): 0% | Test B disease control rating (Puccinia recondita; [2]): 0% | Test C disease control rating (Pyricularia oryzae; [2]): 53%

CCC1(C(=O)NC(C)COc2ccccc2C)C(C)C1(Cl)Cl (mixture of isomers) [compound 95]
Test E disease control rating (Botrytis cinerea; tested at 40 ppm): 0% | Test A disease control rating ([1]; tested at 40 ppm): 52% | Test D disease control rating (Phytophthora infestans; tested at 40 ppm): 0% | Test B disease control rating (Puccinia recondita; tested at 40 ppm): 86% | Test C disease control rating (Pyricularia oryzae; tested at 40 ppm): 94%

CCC1(C(=O)NC(C)COc2cccc(Br)c2)C(C)C1(Cl)Cl (mixture of isomers) [85b]
Test E disease control rating (Botrytis cinerea; tested at 40 ppm): 0% | Test A disease control rating ([1]; tested at 40 ppm): 0% | Test D disease control rating (Phytophthora infestans; tested at 40 ppm): 0% | Test B disease control rating (Puccinia recondita; tested at 40 ppm): 0% | Test C disease control rating (Pyricularia oryzae; tested at 40 ppm): 53%

CCC1(C(=O)NC(C)COc2c(F)cc(F)cc2F)C(C)C1(Cl)Cl (stereo not shown) [compound 237]
Test E disease control rating (100 = 100% disease control, 0 = no disease control) (Botrytis cinerea): 0% | Test A disease control rating (100 = 100% disease control, 0 = no disease control) [1]: 62% | Test D disease control rating (100 = 100% disease control, 0 = no disease control) (Phytophthora infestans): 9% | Test B disease control rating (100 = 100% disease control, 0 = no disease control) (Puccinia recondita): 0% | Test C disease control rating (100 = 100% disease control, 0 = no disease control) (Pyricularia oryzae): 53%

Cc1c(Br)cc(C#N)n1CCC(C)NC(=O)C(C#N)C(C)C(C)(C)C (mixture of isomers) [compound 73]
Test E disease control rating (Botrytis cinerea; [2]): 11% | Test A disease control rating [1, 3]: 30% | Test D disease control rating (Phytophthora infestans; [2]): 0% | Test B disease control rating (Puccinia recondita; [2]): 28% | Test C disease control rating (Pyricularia oryzae; [2]): 53%

CCC1(C(=O)NC(C)COc2ccccc2SC(F)(F)C(F)F)C(C)C1(Cl)Cl (mixture of isomers) [compound 91]
Test E disease control rating (Botrytis cinerea; [2]): 0% | Test A disease control rating [1, 3]: 74% | Test D disease control rating (Phytophthora infestans; [2]): 0% | Test B disease control rating (Puccinia recondita; [2]): 0% | Test C disease control rating (Pyricularia oryzae; [2]): 53%

CC(COc1ccccc1Cl)NC(=O)C(C#N)C(C)C(C)(C)C (mixture of isomers) [compound 58]
Test E disease control rating (Botrytis cinerea; tested at 40 ppm): 0% | Test A disease control rating ([1]; tested at 40 ppm): 57% | Test D disease control rating (Phytophthora infestans; tested at 40 ppm): 0% | Test B disease control rating (Puccinia recondita; tested at 40 ppm): 0% | Test C disease control rating (Pyricularia oryzae; tested at 40 ppm): 52%

C[C@H](COc1cccc(Cl)c1Cl)NC(=O)C(C#N)C(C)(C)C (single isomer, unassigned) [31b]
Test E disease control rating (Botrytis cinerea; [2]): 0% | Test A disease control rating [1, 3]: 0% | Test D disease control rating (Phytophthora infestans; [2]): 0% | Test B disease control rating (Puccinia recondita; [2]): 0% | Test C disease control rating (Pyricularia oryzae; [2]): 94%

C[C@H](COc1c(Cl)ccc(Cl)c1Cl)NC(=O)C(C#N)C(C)(C)C (single isomer, unassigned) [171a]
Test E disease control rating (Botrytis cinerea; [2]): 0% | Test A disease control rating [1, 3]: 0% | Test D disease control rating (Phytophthora infestans; [2]): 0% | Test B disease control rating (Puccinia recondita; [2]): 0% | Test C disease control rating (Pyricularia oryzae; [2]): 86%

CCC1(C(=O)NCC=C(C)c2ccccc2)C(C)C1(Cl)Cl (stereo not shown) [compound 268]
Test E disease control rating (100 = 100% disease control, 0 = no disease control) (Botrytis cinerea): 0% | Test A disease control rating (100 = 100% disease control, 0 = no disease control) [1]: 38% | Test D disease control rating (100 = 100% disease control, 0 = no disease control) (Phytophthora infestans): 88% | Test B disease control rating (100 = 100% disease control, 0 = no disease control) (Puccinia recondita): 0% | Test C disease control rating (100 = 100% disease control, 0 = no disease control) (Pyricularia oryzae): 91%

C=CC(C)(C)C(C#N)C(=O)NC(C)COc1cc(F)ccc1OC(F)F (mixture of isomers) [compound 294]
Test E disease control rating (100 = 100% disease control, 0 = no disease control) (Botrytis cinerea): 0% | Test A disease control rating (100 = 100% disease control, 0 = no disease control) [1]: 0% | Test D disease control rating (100 = 100% disease control, 0 = no disease control) (Phytophthora infestans): 24% | Test B disease control rating (100 = 100% disease control, 0 = no disease control) (Puccinia recondita): 0% | Test C disease control rating (100 = 100% disease control, 0 = no disease control) (Pyricularia oryzae): 99%

CCC(C#N)C(=O)N[C@H](C)[C@H](Oc1cc(F)ccc1F)c1ccccc1 (stereo partly shown) [compound 293]
Test E disease control rating (100 = 100% disease control, 0 = no disease control) (Botrytis cinerea): 0% | Test A disease control rating (100 = 100% disease control, 0 = no disease control) [1]: 0% | Test D disease control rating (100 = 100% disease control, 0 = no disease control) (Phytophthora infestans): 23% | Test B disease control rating (100 = 100% disease control, 0 = no disease control) (Puccinia recondita): 0% | Test C disease control rating (100 = 100% disease control, 0 = no disease control) (Pyricularia oryzae): 100%

CCC1(C(=O)NCC=Cc2cccc(Cl)c2)C(C)C1(Cl)Cl (stereo not shown) [compound 159]
Test E disease control rating (Botrytis cinerea; [2]): 47% | Test A disease control rating [1, 3]: 0% | Test D disease control rating (Phytophthora infestans; [2]): 0% | Test B disease control rating (Puccinia recondita; [2]): 0% | Test C disease control rating (Pyricularia oryzae; [2]): 0%

CCC1(C(=O)NC(C)COc2c(Cl)ccc(Cl)c2Cl)C(C)C1(Cl)Cl (stereo not shown) [compound 117]
Test E disease control rating (Botrytis cinerea; tested at 40 ppm): 0% | Test A disease control rating ([1]; tested at 40 ppm): 83% | Test D disease control rating (Phytophthora infestans; tested at 40 ppm): 0% | Test B disease control rating (Puccinia recondita; tested at 40 ppm): 0% | Test C disease control rating (Pyricularia oryzae; tested at 40 ppm): 74%

CCC1(C(=O)NC(C)COc2ccccc2C(C)(C)C)C(C)C1(Cl)Cl (stereo not shown) [compound 100]
Test E disease control rating (Botrytis cinerea; tested at 40 ppm): 0% | Test A disease control rating ([1]; tested at 40 ppm): 52% | Test D disease control rating (Phytophthora infestans; tested at 40 ppm): 0% | Test B disease control rating (Puccinia recondita; tested at 40 ppm): 0% | Test C disease control rating (Pyricularia oryzae; tested at 40 ppm): 0%

CCC1(C(=O)NC(C)COc2ccc(C)cc2Cl)C(C)C1(Cl)Cl (stereo not shown) [compound 126]
Test E disease control rating (Botrytis cinerea; tested at 40 ppm): 0% | Test A disease control rating ([1]; tested at 40 ppm): 0% | Test D disease control rating (Phytophthora infestans; tested at 40 ppm): 0% | Test B disease control rating (Puccinia recondita; tested at 40 ppm): 0% | Test C disease control rating (Pyricularia oryzae; tested at 40 ppm): 73%

CCC1(C(=O)NC(C)COc2c(Cl)cccc2C#N)C(C)C1(Cl)Cl (mixture of isomers) [compound 260]
Test E disease control rating (100 = 100% disease control, 0 = no disease control) (Botrytis cinerea): 83% | Test A disease control rating (100 = 100% disease control, 0 = no disease control) [1]: 0% | Test D disease control rating (100 = 100% disease control, 0 = no disease control) (Phytophthora infestans): 24% | Test B disease control rating (100 = 100% disease control, 0 = no disease control) (Puccinia recondita): 0% | Test C disease control rating (100 = 100% disease control, 0 = no disease control) (Pyricularia oryzae): 74%

CC(COc1c(C#N)cccc1C(F)F)NC(=O)C(C#N)C(C)(C)C (mixture of isomers) [compound 206]
Test E disease control rating (Botrytis cinerea; [2]): 0% | Test A disease control rating [1, 3]: 0% | Test D disease control rating (Phytophthora infestans; [2]): 0% | Test B disease control rating (Puccinia recondita; [2]): 0% | Test C disease control rating (Pyricularia oryzae; [2]): 74%

CC(COc1ccccc1I)NC(=O)C(C#N)C(C)(C)C (mixture of isomers) [11a]
Test E disease control rating (Botrytis cinerea; [2]): 82% | Test A disease control rating [1, 3]: 77% | Test D disease control rating (Phytophthora infestans; [2]): 0% | Test B disease control rating (Puccinia recondita; [2]): 0% | Test C disease control rating (Pyricularia oryzae; [2]): 97%

CCC1(C(=O)NC(C)COc2cccc(Cl)c2)C(C)C1(Cl)Cl (mixture of isomers) [82b]
Test E disease control rating (Botrytis cinerea; [2]): 0% | Test A disease control rating [1, 3]: 31% | Test D disease control rating (Phytophthora infestans; [2]): 15% | Test B disease control rating (Puccinia recondita; [2]): 0% | Test C disease control rating (Pyricularia oryzae; [2]): 97%

CCC1(C(=O)NC(C)COc2cc(OC(F)F)ccc2C#N)C(C)C1(Cl)Cl (mixture of isomers) [compound 256]
Test E disease control rating (100 = 100% disease control, 0 = no disease control) (Botrytis cinerea): 0% | Test A disease control rating (100 = 100% disease control, 0 = no disease control) [1]: 56% | Test D disease control rating (100 = 100% disease control, 0 = no disease control) (Phytophthora infestans): 0% | Test B disease control rating (100 = 100% disease control, 0 = no disease control) (Puccinia recondita): 0% | Test C disease control rating (100 = 100% disease control, 0 = no disease control) (Pyricularia oryzae): 0%

C[C@H](COc1cc(F)cc(F)c1)NC(=O)C(C#N)C(C)(C)C (single isomer, unassigned) [184b]
Test E disease control rating (Botrytis cinerea; [2]): 45% | Test A disease control rating [1, 3]: 62% | Test D disease control rating (Phytophthora infestans; [2]): 9% | Test B disease control rating (Puccinia recondita; [2]): 0% | Test C disease control rating (Pyricularia oryzae; [2]): 74%

CC(COc1c(F)cccc1F)NC(=O)C(C#N)C(C)(C)C (mixture of isomers) [29a]
Test E disease control rating (Botrytis cinerea; [2]): 6% | Test A disease control rating [1, 3]: 0% | Test D disease control rating (Phytophthora infestans; [2]): 35% | Test B disease control rating (Puccinia recondita; [2]): 0% | Test C disease control rating (Pyricularia oryzae; [2]): 74%
